# System: Adult mongrel dog
# Experiment: Induced hypotension in halothane-anesthetized dog, mean arterial pressure kept at 50 mmHg for 60 min (Example 5)
# Format: in vivo
# Description: Adult mongrel dog, mean body weight 12.7 ± 3.1 kg, was anesthesized with pentobarbital 25 mg/kg, intratarcheally cannulated and maintained anesthetic condition by 0.87% halothane-oxygen (1 MAC, minimum anesthetic concentration). Respiration was controlled, by using respirator (Harvard Corp., Model 613E ) at Paco₂ 35±5 mmHg.
# Catheters were introduced to right femoral vein and artery for monitering arterial blood pressure, arterial blood gas analysis and infusion, and left cardiac catheter was introduced to left femoral […] to monitor left ventricular pressure. The changes in left ventricular pressure were differentiated continuously using a pressure processor (Nihon Koden Co., EQ-601G) to measure a maximum left ventricular systolic ratio (LV dp/dt max). The active ingredient of the present invention was administered to left femoral vein. Pulmonary arterial catheter (7F, Swan-Ganz® catheter) was introduced through right external jugular vein to monitor pulmonary artery pressure (PAP), paulmonary arterial wedge pressure (pulmonary capillary wedge pressure, PCWP) and cardiac output (CO). Pressure was monitored by using disporsable pressure monitoring kit (Gould Corp.), and electrocardiogram, arteriala pressure, left ventricle pressure (LVP) and maximum left ventricular systolic ratio (LV dp/dt max) were monitored by polygraph (Nihon Koden Co.) . Cardiac output (CO) was measured by thermal dilution method using cardiac output monitor (Nihon Koden Co Model MTC6210). Blood gas analysis was made by using automatic blood gas analyser (Radiometer Corp. ABL3). Mean artery pressure (MAP), cardiac index(CI) stroke volume index (SI), systemic vascular resistance (SVR), pulmonary vascular resistance (PVR), left ventricle stroke work index (LVSWI) and coronary perfusion pressure (CPP) were calculated by standard calculation equations, respectively.
# To maintain low blood pressure, the active ingredient was intraveneously administered for 60 minutes with maintaining maximum dose at 40 µg/kg and adjusting to maintain mean arteraial pressure at 50 mmHg. Physiological saline was used for maintenance infusion and administered in combination with the active ingredient at 7 ml/kg/hr. At blood sampling two fold volume of hydroxyethylstarch (6-HES) was supplementary administered. Body temperature was maintained at 37 ± 1°C by covering with blanket.
# A value at time are than 60 minutes passed after completing the start of the experiment and stabilizing a depth of anesthesia and blood flow, is set as control (S₁). Monitorings were performed at 5 min., 30 min. and 60 min. under reduced blood pressure in induced hypotension, and at 10 min., 30 min. and 60 min. after terminating the reduced blood pressure in induced hypotension (after stopping administration), for totally seven points of time.
# [1] = after administration 5min., i.v., MAP kept at 50 mmHg
# [2] = after administration 30min., i.v., MAP kept at 50 mmHg
# [3] = after administration 60min., i.v., MAP kept at 50 mmHg
# [4] = after terminating administration 10min.
# [5] = after terminating administration 30min.
# [6] = after terminating administration 60min.
substance,measurement,setting,value
desalanyl-deamino-c-CGRP,CI: Cardiac index,[1],4.65 1/min/m²
same,CO: Cardiac output,[1],3.67 min⁻¹
same,CPP: Coronary perfusion pressure,[1],45 mmHg
same,CVP: Central venous pressure,[1],4 mmHg
same,DAP: Diastolic artery pressure,[1],50 mmHg
same,DPAP: Diastolic pulmonary artery pressure,[1],7 mmHg
same,EtCO₂: Expiration terminal CO₂ pressure,[1],37 mmHg
same,HR: Heart rate,[1],143 beat/min
same,LV dp/dt max: maximum left ventricular systolic ratio,[1],3000 mmHg/sec
same,LVEP: Left ventricle end pressure,[1],0 mmHg
same,LVP: Left ventricle pressure,[1],102 mmHg
same,LVSWI: Left ventricle stroke work index,[1],26.5 g.m/beat/m²
same,MAP: Mean artery pressure,[1],65 mmHg
same,MPAP: Mean pulmonary artery pressure,[1],16 mmHg
same,PCWP: Pulmonary capillary wedge pressure,[1],5 mmHg
same,PVR: Pulmonary vascular resistance,[1],255 dynes · sec/cm⁵
same,RPP: Rate pressure products,[1],13200 mmHg.beat/min
same,RVSWI: Right ventricle stroke work index,[1],5.30 g.m/beat/m²
same,SAP: Systolic artery pressure,[1],93 mmHg
same,SI: Stroke index,[1],32.5 ml/HR/m²
same,SPAP: Systolic pulmonary artery pressure,[1],29 mmHg
same,SV: Stroke volumes,[1],24 mL/beat
same,SVR: Systemic vascular resistance,[1],1410 dynes · sec/cm⁵
same,CI: Cardiac index,[2],4.24 1/min/m²
same,CO: Cardiac output,[2],3.40 min⁻¹
same,CPP: Coronary perfusion pressure,[2],29 mmHg
same,CVP: Central venous pressure,[2],4 mmHg
same,DAP: Diastolic artery pressure,[2],34 mmHg
same,DPAP: Diastolic pulmonary artery pressure,[2],5 mmHg
same,EtCO₂: Expiration terminal CO₂ pressure,[2],35 mmHg
same,HR: Heart rate,[2],132 beat/min
same,LV dp/dt max: maximum left ventricular systolic ratio,[2],2600 mmHg/sec
same,LVEP: Left ventricle end pressure,[2],0 mmHg
same,LVP: Left ventricle pressure,[2],86 mmHg
same,LVSWI: Left ventricle stroke work index,[2],19.7 g.m/beat/m²
same,MAP: Mean artery pressure,[2],50 mmHg
same,MPAP: Mean pulmonary artery pressure,[2],12 mmHg
same,PCWP: Pulmonary capillary wedge pressure,[2],5 mmHg
same,PVR: Pulmonary vascular resistance,[2],177 dynes · sec/cm⁵
same,RPP: Rate pressure products,[2],7650 mmHg.beat/min
same,RVSWI: Right ventricle stroke work index,[2],3.50 g.m/beat/m²
same,SAP: Systolic artery pressure,[2],58 mmHg
same,SI: Stroke index,[2],32.2 ml/HR/m²
same,SPAP: Systolic pulmonary artery pressure,[2],24 mmHg
same,SV: Stroke volumes,[2],23.8 mL/beat
same,SVR: Systemic vascular resistance,[2],1160 dynes · sec/cm⁵
same,CI: Cardiac index,[3],4.95 1/min/m²
same,CO: Cardiac output,[3],3.75 min⁻¹
same,CPP: Coronary perfusion pressure,[3],37 mmHg
same,CVP: Central venous pressure,[3],4 mmHg
same,DAP: Diastolic artery pressure,[3],43 mmHg
same,DPAP: Diastolic pulmonary artery pressure,[3],7 mmHg
same,EtCO₂: Expiration terminal CO₂ pressure,[3],34 mmHg
same,HR: Heart rate,[3],138 beat/min
same,LV dp/dt max: maximum left ventricular systolic ratio,[3],2600 mmHg/sec
same,LVEP: Left ventricle end pressure,[3],0 mmHg
same,LVP: Left ventricle pressure,[3],95 mmHg
same,LVSWI: Left ventricle stroke work index,[3],23.4 g.m/beat/m²
same,MAP: Mean artery pressure,[3],50 mmHg
same,MPAP: Mean pulmonary artery pressure,[3],15 mmHg
same,PCWP: Pulmonary capillary wedge pressure,[3],6 mmHg
same,PVR: Pulmonary vascular resistance,[3],196 dynes · sec/cm⁵
same,RPP: Rate pressure products,[3],8000 mmHg.beat/min
same,RVSWI: Right ventricle stroke work index,[3],5.37 g.m/beat/m²
same,SAP: Systolic artery pressure,[3],58 mmHg
same,SI: Stroke index,[3],35.9 ml/HR/m²
same,SPAP: Systolic pulmonary artery pressure,[3],27 mmHg
same,SV: Stroke volumes,[3],26.5 mL/beat
same,SVR: Systemic vascular resistance,[3],1090 dynes · sec/cm⁵
same,CI: Cardiac index,[4],4.33 1/min/m²
same,CO: Cardiac output,[4],3.33 min⁻¹
same,CPP: Coronary perfusion pressure,[4],41 mmHg
same,CVP: Central venous pressure,[4],4 mmHg
same,DAP: Diastolic artery pressure,[4],49 mmHg
same,DPAP: Diastolic pulmonary artery pressure,[4],7 mmHg
same,EtCO₂: Expiration terminal CO₂ pressure,[4],32 mmHg
same,HR: Heart rate,[4],136 beat/min
same,LV dp/dt max: maximum left ventricular systolic ratio,[4],3000 mmHg/sec
same,LVEP: Left ventricle end pressure,[4],0 mmHg
same,LVP: Left ventricle pressure,[4],110 mmHg
same,LVSWI: Left ventricle stroke work index,[4],21.7 g.m/beat/m²
same,MAP: Mean artery pressure,[4],58 mmHg
same,MPAP: Mean pulmonary artery pressure,[4],15 mmHg
same,PCWP: Pulmonary capillary wedge pressure,[4],8 mmHg
same,PVR: Pulmonary vascular resistance,[4],174 dynes · sec/cm⁵
same,RPP: Rate pressure products,[4],9240 mmHg.beat/min
same,RVSWI: Right ventricle stroke work index,[4],4.77 g.m/beat/m²
same,SAP: Systolic artery pressure,[4],68 mmHg
same,SI: Stroke index,[4],31.9 ml/HR/m²
same,SPAP: Systolic pulmonary artery pressure,[4],26 mmHg
same,SV: Stroke volumes,[4],23.6 mL/beat
same,SVR: Systemic vascular resistance,[4],1340 dynes · sec/cm⁵
same,CI: Cardiac index,[5],4.07 1/min/m²
same,CO: Cardiac output,[5],3.14 min⁻¹
same,CPP: Coronary perfusion pressure,[5],46 mmHg
same,CVP: Central venous pressure,[5],4 mmHg
same,DAP: Diastolic artery pressure,[5],53 mmHg
same,DPAP: Diastolic pulmonary artery pressure,[5],8 mmHg
same,EtCO₂: Expiration terminal CO₂ pressure,[5],30 mmHg
same,HR: Heart rate,[5],138 beat/min
same,LV dp/dt max: maximum left ventricular systolic ratio,[5],3000 mmHg/sec
same,LVEP: Left ventricle end pressure,[5],0 mmHg
same,LVP: Left ventricle pressure,[5],110 mmHg
same,LVSWI: Left ventricle stroke work index,[5],23.7 g.m/beat/m²
same,MAP: Mean artery pressure,[5],66 mmHg
same,MPAP: Mean pulmonary artery pressure,[5],15 mmHg
same,PCWP: Pulmonary capillary wedge pressure,[5],7 mmHg
same,PVR: Pulmonary vascular resistance,[5],211 dynes · sec/cm⁵
same,RPP: Rate pressure products,[5],10900 mmHg.beat/min
same,RVSWI: Right ventricle stroke work index,[5],4.42 g.m/beat/m²
same,SAP: Systolic artery pressure,[5],79 mmHg
same,SI: Stroke index,[5],29.5 ml/HR/m²
same,SPAP: Systolic pulmonary artery pressure,[5],25 mmHg
same,SV: Stroke volumes,[5],21.8 mL/beat
same,SVR: Systemic vascular resistance,[5],1640 dynes · sec/cm⁵
same,CI: Cardiac index,[6],4.14 1/min/m²
same,CO: Cardiac output,[6],3.07 min⁻¹
same,CPP: Coronary perfusion pressure,[6],54 mmHg
same,CVP: Central venous pressure,[6],6 mmHg
same,DAP: Diastolic artery pressure,[6],61 mmHg
same,DPAP: Diastolic pulmonary artery pressure,[6],8 mmHg
same,EtCO₂: Expiration terminal CO₂ pressure,[6],30 mmHg
same,HR: Heart rate,[6],134 beat/min
same,LV dp/dt max: maximum left ventricular systolic ratio,[6],3000 mmHg/sec
same,LVEP: Left ventricle end pressure,[6],0 mmHg
same,LVP: Left ventricle pressure,[6],111 mmHg
same,LVSWI: Left ventricle stroke work index,[6],31.1 g.m/beat/m²
same,MAP: Mean artery pressure,[6],95 mmHg
same,MPAP: Mean pulmonary artery pressure,[6],16 mmHg
same,PCWP: Pulmonary capillary wedge pressure,[6],7 mmHg
same,PVR: Pulmonary vascular resistance,[6],234 dynes · sec/cm⁵
same,RPP: Rate pressure products,[6],13600 mmHg.beat/min
same,RVSWI: Right ventricle stroke work index,[6],4.21 g.m/beat/m²
same,SAP: Systolic artery pressure,[6],102 mmHg
same,SI: Stroke index,[6],30.9 ml/HR/m²
same,SPAP: Systolic pulmonary artery pressure,[6],26 mmHg
same,SV: Stroke volumes,[6],22.9 mL/beat
same,SVR: Systemic vascular resistance,[6],1950 dynes · sec/cm⁵
